Data: patent US20050123604A1, “Pharmaceutical compositions” (priority 2002, published 2005)

Tests used:
[1] = blood plasma half life after oral administration; format: in vivo; conditions: oral administration of immediate release composition
From the text: The pharmaceutical compositions useful in the practice of the invention are for oral administration and are “immediate release” dosage forms. That is, the pharmaceutical compositions useful in the practice of the invention have neither the pharmacokinetic nor physical characteristics of extended release pharmaceutical dosage forms. Thus, a pharmaceutical composition useful in the practice of the invention, if in solid form, will disintegrate or dissolve rapidly, preferably within one hour of administration, and administration of a pharmaceutical composition useful in the practice of the invention will result in a rapid rise in the blood plasma concentration of 5-methyl-2-(2′-chloro-6′-fluoroanilino)phenylacetic acid. Preferably, the blood plasma concentration of 5-methyl-2-(2′-chloro-6′-fluoroanilino)phenylacetic acid will reach a maximum within two to six hours after oral administration and will then fall rapidly due to the relatively short (3 to 6 hour) half life of 5-methyl-2-(2′-chloro-6′-fluoroanilino)phenylacetic acid.

[2] = chemical stability of drug substance in tablets as a function of residual moisture (LOD); format: physicochemical; conditions: LOD kept at about 2.1%-4.5% (200 mg tablets) or about 1.7%-3.5% (400 mg, 65% drug-loaded tablets)
Protocol: That is, certain degradation products of 5-methyl-2-(2′-chloro-6′-fluoroanilino)phenylacetic acid are formed at a greater rate in dryer tablets, which is contrary to the typical behavior of drug substances. In general, moisture, in the form of water, is detrimental to drug stability, and packaging for pharmaceutical formulations frequently contains some form of desiccant material to minimize moisture levels.
Tablets with about 200 mg of active agent preferably have an LOD of 3.5% with a desirable range between about 2.1% and about 4.5%. 65% drug-loaded tablets with about 400 mg of active agent preferably have an LOD of about 2.5%, with a desirable range between about 1.7% and about 3.5%.
The compositions and methods of the invention provide solid pharmaceutical compositions for oral administration comprising 5-methyl-2-(2′-chloro-6′-fluoroanilino)phenylacetic acid with minimal levels of total degradation products Oral dosage levels for 5-methyl-2-(2′-chloro-6′-fluoroanilino)phenylacetic acid are of the order of between about 200 and about 1200 mg per patient per day. In a preferred embodiment, the effective amount is between about 200 and about 800 mg. In a more preferred embodiment, the effective amount is between about 200 and about 600 mg. In an even more preferred embodiment, the effective amount is between about 200 and about 400 mg. […]

half-life [1]: 3 to 6 h
chemical stability of the active agent in tablets [2]: more chemically stable
SMILES: Cc1ccc(Nc2c(F)cccc2Cl)c(CC(=O)O)c1 [5-methyl-2-(2′-chloro-6′-fluoroanilino)phenylacetic acid]
